Laboratory results as given in ChEMBL document CHEMBL1126448, “Synthesis and biological activity of putative mono-hydroxylated metabolites of velnacrine” (Bioorg Med Chem Lett, 1992).
Activity calls are given as the source filed them. The rule behind the calls is not given here.

How the values were obtained:
Mus musculus [1] = experiment: Compound was evaluated for reversal of scopolamine-induced memory impairment in mice when administered subcutaneously (1-10 mg/kg); assay type: functional
[2] = Acute toxicity in mice when administered subcutaneously; details: mouse, in vivo, sc
Acetylcholinesterase = biological target: T1, Acetylcholinesterase (Rattus norvegicus, UniProt P37136)
T1 sequence (P37136 whole entry): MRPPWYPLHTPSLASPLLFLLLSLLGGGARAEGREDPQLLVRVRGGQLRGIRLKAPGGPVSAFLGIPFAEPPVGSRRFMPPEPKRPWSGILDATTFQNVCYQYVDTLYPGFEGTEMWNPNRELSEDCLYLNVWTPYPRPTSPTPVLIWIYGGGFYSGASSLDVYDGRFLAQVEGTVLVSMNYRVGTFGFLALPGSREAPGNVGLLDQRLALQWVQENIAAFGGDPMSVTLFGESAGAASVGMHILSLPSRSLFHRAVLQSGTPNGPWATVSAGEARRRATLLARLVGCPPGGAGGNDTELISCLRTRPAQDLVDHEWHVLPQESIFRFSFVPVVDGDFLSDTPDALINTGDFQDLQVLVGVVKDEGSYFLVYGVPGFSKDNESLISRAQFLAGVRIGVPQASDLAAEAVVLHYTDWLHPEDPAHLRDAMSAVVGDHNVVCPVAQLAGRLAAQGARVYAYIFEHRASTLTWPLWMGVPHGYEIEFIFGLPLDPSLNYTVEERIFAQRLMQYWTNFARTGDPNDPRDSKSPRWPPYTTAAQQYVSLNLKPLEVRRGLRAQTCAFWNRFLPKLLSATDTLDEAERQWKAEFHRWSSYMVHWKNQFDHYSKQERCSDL
Description: Inhibition of acetylcholinesterase

Mus musculus [3] = experiment: Compound was evaluated for reversal of scopolamine-induced memory impairment in mice when administered subcutaneously; Not active (1-10 mg/kg); assay type: functional
Mus musculus [4] = experiment: Compound was evaluated for reversal of scopolamine-induced memory impairment in mice when administered subcutaneously (0.31 - 5 mg/kg); assay type: functional; details: route subcutaneous
Mus musculus [5] = experiment: Compound was evaluated for reversal of scopolamine-induced memory impairment in mice when administered subcutaneously; assay type: functional
Mus musculus [6] = experiment: Compound was evaluated for reversal of scopolamine-induced memory impairment in mice when administered subcutaneously; Not active (0.16-5 mg/kg); assay type: functional

Nc1c2c(nc3ccccc13)C[C@H](O)C[C@H]2O
Dose (Mus musculus [1]): 1 mg/kg
LD50 [2]: > 80 mg/kg
IC50 (Acetylcholinesterase): 14.7 µM

Nc1c2c(nc3cccc(O)c13)CCCC2O (centres undefined)
Dose (Mus musculus [3]): 1 mg/kg
LD50 [2]: > 80 mg/kg
IC50 (Acetylcholinesterase): 27.4 µM

Nc1c2c(nc3ccccc13)CCCC2O (centres undefined) [VELNACRINE]
Dose (Mus musculus [4]): 0.31 mg/kg
LD50 [2]: > 80 mg/kg
IC50 (Acetylcholinesterase): 1.3 µM

Nc1c2c(nc3ccccc13)CC[C@H](O)[C@H]2O
IC50 (Acetylcholinesterase): > 100 µM

Nc1c2c(nc3c(O)cccc13)CCCC2O (centres undefined)
Dose (Mus musculus [3]): 1 mg/kg
LD50 [2]: > 80 mg/kg
IC50 (Acetylcholinesterase): 25.1 µM

Nc1c2c(nc3ccccc13)[C@H](O)CC[C@H]2O
DOSE (Mus musculus [3]): inactive
LD50 [2]: > 80 mg/kg
IC50 (Acetylcholinesterase): 62.1 µM

Nc1c2c(nc3ccccc13)CC[C@H](O)[C@@H]2O
IC50 (Acetylcholinesterase): > 100 µM

Nc1c2c(nc3ccccc13)[C@H](O)CC[C@@H]2O
Dose (Mus musculus [5]): 3 mg/kg
LD50 [2]: > 80 mg/kg
IC50 (Acetylcholinesterase): 4.6 µM

Nc1c2c(nc3cc(O)ccc13)CCCC2O (centres undefined)
Dose (Mus musculus [6]): 0.16 mg/kg
LD50 [2]: > 80 mg/kg
IC50 (Acetylcholinesterase): 64.4 µM

Nc1c2c(nc3ccccc13)C[C@H](O)C[C@@H]2O
Dose (Mus musculus [1]): 1 mg/kg
LD50 [2]: > 80 mg/kg
IC50 (Acetylcholinesterase): 5.4 µM

Nc1c2c(nc3ccc(O)cc13)CCCC2O (centres undefined)
Dose (Mus musculus [6]): 0.16 mg/kg
LD50 [2]: > 80 mg/kg
IC50 (Acetylcholinesterase): 10.6 µM
